“Also recorded” adds a separate entry of the source.
How the values were obtained:
Assay type in all cases: in vivo
[1] = system: Plasmodium berghei parasite in Anopheles stephensi mosquitoes; test: Malaria parasite growth in the body of vector mosquitoes fed with a rare sugar (ookinete, oocyst, sporozoite counts); settings: for formation of ookinetes in the midgut of the mosquito: 100 mM rare sugar + 440 mM D-fructose fed, one day after sucking infected blood, vs control
Description: In order to block malaria transmission, a vector mosquito is fed with a feed containing a rare sugar in advance, and then made to suck blood of a mouse infected with Plasmodium berghei parasite, whereby garaetocytes are ingested into the midgut of the vector mosquito. Thereafter, the feed containing a rare sugar is continuously given to the mosquito, and at the time point when one day has passed after the gametocytes are ingested into the body, the number of ookinetes in the midgut is evaluated, and then, the number of oocysts on the midgut after 10 days, the number of sporozoites in the midgut and the number of sporozoites in the salivary glands after 18 days are evaluated. In this manner, the malaria parasite growth inhibitory effect of the rare sugar was examined.
First, three groups, each of which includes about 200 Anopheles stephensi mosquitoes, were prepared, and in a first group, a mixed aqueous solution of 100 mM D-allose and 440 mM D-fructose was fed, in a second group, a mixed aqueous solution of 100 mM B-psicose and 440 mM D-fructose was fed, and in a third group, an aqueous solution of 440 mM D-fructose was fed, which was used as a control. Each of these aqueous solutions was placed in an Erlenmeyer flask, and a lower end portion of a filter paper was dipped in the aqueous solution, and Anopheles stephensi mosquitoes were fed with the aqueous solution absorbed in the filter paper.
Further, red blood cells infected with Plasmodium berghei parasite were intraperitoneally administered to BALB/c mice (6 weeks of age, female), whereby mice infected with malaria were prepared.
Anopheles stephensi mosquitoes in each group were made to suck each aqueous solution for 3 days, and thereafter, made to suck blood of the mice infected with Plasmodium berghei malaria, whereby the malaria parasites were incorporated in the body of Anopheles stephensi mosquitoes. Subsequently, while continuously giving the fructose aqueous solution containing a rare sugar or the aqueous solution containing only fructose, the number of parasites in the body of the mosquitoes was evaluated at the below-mentioned timings. That is, 24 hours after sucking infected blood, the number of ookinetes in the midgut was counted, the number of oocysts on the midgut was counted after 10 days, and the number of sporozoites in the midgut and in the salivary glands were counted after 18 days, and the results of the three groups were compared.
The D-allose concentration dependence for malaria parasite growth blocking effect of a rare sugar was examined. Four groups of Anopheles stephensi mosquitoes were prepared, and in a first group to a third group, mixed aqueous solutions of 10 mM, 30 mM, or 100 mM D-allose and 440 mM D-fructose were fed, respectively, and in a fourth group, an aqueous solution of 440 mM D-fructose was fed. In each of these aqueous solutions, a lower end portion of a filter paper was dipped, and Anopheles stephensi mosquitoes were fed with the aqueous solution absorbed in the filter paper.
Anopheles stephensi mosquitoes in each group were made to suck each aqueous solution for 3 days, and thereafter, made to suck blood of the mice infected with Plasmodium berghei malaria, whereby the malaria parasites were incorporated in the body of Anopheles stephensi mosquitoes. Thereafter, while continuously giving the aqueous solution containing a rare sugar or the aqueous solution containing only fructose, the number of parasites in the body of the mosquitoes was counted at respective timings. That is, 24 hours after sucking infected blood, the number of ookinetes in the midgut, was counted, the number of oocysts on the midgut was counted after 10 days, and the number of sporozoites in the midgut and in the salivary glands were counted after 18 days, and the results of the four groups were compared. […]

[2] = system: Plasmodium berghei transmission from Anopheles stephensi mosquitoes to BALB/c mice; test: Infectivity to mice: malaria transmission by rare-sugar-fed mosquitoes sucking blood of BALB/c mice; settings: for onset of malaria in mice: compared with 10 mM group and fructose single feeding group
Description: 20 days after sucking blood of an infected mouse, each group of mosquitoes which had been fed with a rare sugar (D-allose or D-psicose) and a control group of mosquitoes which had not been fed with a rare sugar were made to suck blood of mice, and the infectivity of malaria in mice was examined. As a result, in a group in which the mosquitoes fed with D-allose were made to suck blood, malaria infection was not observed in about 70% of mice, and the infection inhibitory effect of a rare sugar was confirmed.
(§1) Each of the Anopheles stephensi mosquitoes in the three groups fed with the feed for 20 days in the above Example 1 was made to suck blood of the BALB/c mice (6 weeks of age, female). In each group, 50 mosquitoes were made to suck blood of 5 mice for 1 minute 5 times for each mouse. Every day from 2 days after sucking blood, a smear preparation was prepared from a small amount of blood collected from the tail of each mouse, followed by Giemsa staining, and thereafter, the presence or absence of parasites was examined with a microscope. In some mice, parasites were confirmed 3 days after sucking blood, and thereafter, the incidence rate increased, however, whether or not malaria was developed was determined based on the presence or absence of parasites at the time point of 14 days after sucking blood in the end.
Each of the Anopheles stephensi mosquitoes in the four groups fed with the feed for 20 days in the above Example 3 was made to suck blood of the BALE/c mice (6 weeks of age, female). In each group, 50 mosquitoes were made to suck blood of 5 mice for 1 minute 5 times for each mouse. Every day from 2 days after sucking blood, a smear preparation was prepared from a small amount of blood collected from the tail of each mouse, followed by Giemsa staining, and thereafter, the presence or absence of parasites was examined with a microscope. Whether or not malaria was developed was determined at the time point of 14 days after sucking blood. […] Also in the 30 mM D-allose feeding group, the incidence rate was 100%, however, malaria was developed one day later as compared with the 10 mM D-ailose feeding group and the fructose single feeding group.
as §1, with “Example 5” for “Example 1”, “the BALE/c” for “the BALB/c”

[3] = system: Plasmodium berghei parasite in Anopheles stephensi mosquitoes; test: Malaria parasite growth in the body of vector mosquitoes fed with a rare sugar (ookinete, oocyst, sporozoite counts); settings: Example 5, D-allose 100 mM + 440 mM D-fructose or Rare Sugar Sweet diluted 2.3 times
[4] = Example 1, 100 mM rare sugar + 440 mM D-fructose, 10 days after sucking blood
[5] = Example 1, 100 mM rare sugar + 440 mM D-fructose, 18 days after sucking blood
[6] = Example 2, mosquitoes fed 100 mM rare sugar + Fructose 440 mM for 20 days, determined 14 days after sucking blood
[7] = Examples 1 and 2, 100 mM rare sugar + 440 mM D-fructose

How did the “formation of ookinetes in the midgut of the mosquito” value ([1]; Example 1) turn out when `O=C(CO)[C@H](O)[C@H](O)[C@H](O)CO` [D-psicose] was run?
The value was “suppressed to some extent; also recorded: somewhat suppressed”.

What about the “formation of oocysts on the midgut” value [1, 4] of the same compound?
The value was “slightly promoted”.

What about the “formation of sporozoites in the salivary glands” value [1, 5] of the same compound?
Its value is “slightly exceeding that in the control”.

What about the “number of sporozoites in the midgut suppressed as compared with the control group” value [1, 5] of the same compound?
The value was “about 60%”.

What about the “Incidence rate after sucking blood (%) (mice which developed malaria/mice which had their blood sucked)” value [2, 6] of the same compound?
Its value is 100%.

And the “Incidence rate after sucking blood (%) (mice which developed malaria/mice which had their blood sucked)” value ([2]; Example 2, mosquitoes fed 100 mM rare sugar + Fructose 440 mM for 20 days, determined 14 days after sucking blood, listed as Psicose)?
The value was 100 (6/6) %.

And the “malaria transmission (transmission-blocking effect)” value [2, 7]?
The value was “not observed”.

How did the “formation of ookinetes in the midgut of the mosquito” value ([1]; Example 1) turn out when `O=C[C@H](O)[C@H](O)[C@H](O)[C@H](O)CO` [D-allose] was run?
The value was “not suppressed; also recorded: slight”.

And the “formation of oocysts on the midgut” value [1, 4]?
Its value is “suppressed”.

And the “number of oocysts suppressed as compared with the control group” value [1, 4]?
Its value is 95%.

What about the “formation of sporozoites in the midgut” value [1, 5] of the same compound?
The value was “suppressed”.

What about the “formation of sporozoites in the salivary glands” value [1, 5] of the same compound?
The value was “suppressed”.

And the “number of sporozoites in the midgut suppressed as compared with the control group” value [1, 5]?
Its value is 98.7%.

What about the “number of sporozoites in the salivary gland suppressed as compared with the control group” value [1, 5] of the same compound?
The value was 98.5%.

And the “number of sporozoites in the salivary glands” value ([1]; Example 3, 30 mM D-allose feeding group, 18 days after sucking blood)?
Its value is “significantly decreased”.

What about the number of oocysts ([1]; Example 3, D-allose 10 mM to 100 mM + 440 mM D-fructose, 10 days after sucking blood) of the same compound?
Its number of oocysts is “suppressed in a D-allose concentration-dependent manner”.

What about the “growth into ookinetes in the midgut” value ([1]; Example 3, D-allose 10 mM to 100 mM + 440 mM D-fructose, one day after sucking blood) of the same compound?
Its value is “suppressed in a concentration-dependent manner”.

What about the “growth of oocysts on the midgut” value ([1]; Example 3, D-allose 100 mM + 440 mM D-fructose, 10 days after sucking blood) of the same compound?
Its value is “almost completely suppressed”.

What about the “formation of sporozoites (midgut and salivary glands)” value ([1]; Example 3, D-allose 100 mM + 440 mM D-fructose, 18 days after sucking blood) of the same compound?
Its value is “completely suppressed”.

And the “suppression of the formation of ookinetes in the midgut” value ([1]; Example 5, D-allose 100 mM + 440 mM D-fructose or Rare Sugar Sweet diluted 2.3 times, one day after sucking blood)?
Its value is “slight”.

And the “Incidence rate after sucking blood (%) (mice which developed malaria/mice which had their blood sucked)” value [2, 6]?
The value was 29%.

And the “Incidence rate after sucking blood (%) (mice which developed malaria/mice which had their blood sucked)” value ([2]; Example 2, mosquitoes fed 100 mM rare sugar + Fructose 440 mM for 20 days, determined 14 days after sucking blood, listed as Allose)?
Its value is 29 (2/7) %.

What about the “number of sporozoites inoculated into the mice when having their blood sucked” value ([2]; Example 4, 30 mM D-allose feeding group, inferred from onset one day later) of the same compound?
The value was “about one-tenth”.

And the “malaria transmission / development of malaria in mice” value ([2]; Example 4, 100 mM D-allose + D-fructose)?
Its value is “did not develop malaria”.

And the incidence rate suppressed ([2]; Example 4, 100 mM D-allose feeding group)?
Its incidence rate suppressed is 100%.

And the “Incidence rate after sucking blood (%) (mice which developed malaria/mice which had their blood sucked)” value ([2]; Example 4, Allose 10 mM + Fructose 440 mM, 14 days after sucking blood)?
Its value is 100%.

And the “Incidence rate after sucking blood (%) (mice which developed malaria/mice which had their blood sucked)” value ([2]; Example 4, Allose 10 mM + Fructose 440 mM, 14 days after sucking blood, listed as Allose)?
The value was 100 (5/5) %.

And the “Incidence rate after sucking blood (%) (mice which developed malaria/mice which had their blood sucked)” value ([2]; Example 4, Allose 30 mM + Fructose 440 mM, 14 days after sucking blood)?
The value was 100%.

And the “Incidence rate after sucking blood (%) (mice which developed malaria/mice which had their blood sucked)” value ([2]; Example 4, Allose 30 mM + Fructose 440 mM, 14 days after sucking blood, listed as Allose)?
Its value is 100 (5/5) %.

And the “onset of malaria in mice” value ([2]; Example 4, Allose 30 mM + Fructose 440 mM)?
Its value is “one day later”.

And the “onset of malaria in mice” value ([2]; Example 4, Allose 30 mM + Fructose 440 mM, listed as Allose)?
The value was “The onset was delayed”.

And the “Incidence rate after sucking blood (%) (mice which developed malaria/mice which had their blood sucked)” value ([2]; Example 4, Allose 100 mM + Fructose 440 mM, 14 days after sucking blood)?
The value was 0 (0/5) %.

What about the “Incidence rate after sucking blood (%) (mice which developed malaria/mice which had their blood sucked)” value ([2]; Example 6, Allose 100 mM + Fructose 440 mM or Rare Sugar Sweet diluted 2.3 times, 14 days after sucking blood) of the same compound?
The value was 0 (0/5) %.

What about the “malaria transmission (transmission-blocking effect)” value ([2]; Example 6, D-allose 100 mM + D-fructose or Rare Sugar Sweet diluted 2.3 times) of the same compound?
Its value is “completely inhibited; also recorded: completely transmission-blocking effect”.

What about the “malaria transmission (transmission-blocking effect)” value [2, 7] of the same compound?
Its value is “significantly suppressed; also recorded: completely blocks”.

What about the “mice in which malaria infection was not observed” value ([2]; mosquitoes fed with rare sugar, 20 days after sucking blood of an infected mouse) of the same compound?
Its value is “about 70%”.

And the “number of oocysts suppressed as compared with the control group” value ([3]; 10 days after sucking blood)?
Its value is 100%.

And the “number of sporozoites in the midgut suppressed as compared with the control group” value ([3]; 18 days after sucking blood)?
Its value is 100%.

What about the “number of sporozoites in the salivary glands suppressed” value ([3]; 18 days after sucking blood) of the same compound?
Its value is 100%.
